# Laboratory results from patent US8263606B2 (Xenon Pharmaceuticals Inc., priority 2008, dated 2012).
# Legend:
# [1] = tested on: sodium channel; assay: Guanidine influx assay (14C-guanidine radiotracer flux, in vitro); format: cell-based, human or rat; details: guanidine influx assay using a known cell line that expresses a sodium channel
# Procedure, shortened: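 Cells stably expressing human or rat sodium channels (~100,000/well, 20–24 h) were exposed in low-sodium choline buffer to test agent plus aconitine activator and 14C-guanidine at ambient temperature. Intracellular 14C-guanidine was counted by scintillation; IC50 fitted by 4-parameter logistic over half-dilutions around 1 μM.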
# [2] = target: CYP3A4 (Homo sapiens, UniProt P08684); assay: Cytochrome P450 (CYP450) Inhibition Assay, CYP3A4 (Vivid fluorescence, BOMCC substrate); details: human, P450 Baculosomes (recombinant CYP3A4), probe BOMCC (Vivid substrate)
# Chain of CYP3A4 (P08684 whole entry): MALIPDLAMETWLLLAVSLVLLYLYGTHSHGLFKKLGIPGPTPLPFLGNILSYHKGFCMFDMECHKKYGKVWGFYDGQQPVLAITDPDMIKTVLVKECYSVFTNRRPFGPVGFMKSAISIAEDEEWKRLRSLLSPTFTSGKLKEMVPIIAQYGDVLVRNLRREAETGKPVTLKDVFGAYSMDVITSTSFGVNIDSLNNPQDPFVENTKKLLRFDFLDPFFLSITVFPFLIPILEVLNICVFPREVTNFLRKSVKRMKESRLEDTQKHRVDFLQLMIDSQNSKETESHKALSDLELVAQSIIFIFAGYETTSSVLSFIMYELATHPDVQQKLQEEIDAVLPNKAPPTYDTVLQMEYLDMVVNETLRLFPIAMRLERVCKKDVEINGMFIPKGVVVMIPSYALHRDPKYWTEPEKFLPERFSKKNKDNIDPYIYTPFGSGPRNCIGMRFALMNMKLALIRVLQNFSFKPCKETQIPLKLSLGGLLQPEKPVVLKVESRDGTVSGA
Structure (SMILES),IC50 [1],melting point,inhibition at 10 µM [2]
"CCc1ccc(NC(=O)c2ccccc2CN2C(=O)C3(COc4cc5c(cc43)CCO5)c3ccccc32)cc1 (stereo not drawn) [Example 12.8, N-(4-ethylphenyl)-2-[(2′-oxo-5,6-dihydrospiro[benzo[1,2-b:5,4-b′]difuran-3,3′-indol]-1′(2′H)-yl)methyl]benzamide]",≥ 10000 nM,> 230 °C,< 50%
"CCc1ccccc1NC(=O)c1ccccc1CN1C(=O)C2(COc3cc4c(cc32)CCO4)c2ccccc21 (stereo not drawn) [Example 12.9, N-(2-ethylphenyl)-2-[(2′-oxo-5,6-dihydrospiro[benzo[1,2-b:5,4-b′]difuran-3,3′-indol]-1′(2′H)-yl)methyl]benzamide]",1000 to 10000 nM,184 to 186 °C,> 50%
"Cc1ccc(NC(=O)c2ccccc2CN2C(=O)C3(COc4cc5c(cc43)CCO5)c3ccccc32)c(C)c1 (stereo not drawn) [Example 12.10, N-(2,4-dimethylphenyl)-2-[(2′-oxo-5,6-dihydrospiro[benzo[1,2-b:5,4-b′]difuran-3,3′-indol]-1′(2′H)-yl)methyl]benzamide]",1000 to 10000 nM,207 to 208 °C,> 50%
"COc1ccccc1NC(=O)c1ccccc1CN1C(=O)C2(COc3cc4c(cc32)CCO4)c2ccccc21 (stereo not drawn) [Example 12.11, N-(2-methoxyphenyl)-2-[(2′-oxo-5,6-dihydrospiro[benzo[1,2-b:5,4-b′]difuran-3,3′-indol]-1′(2′H)-yl)methyl]benzamide]",1000 to 10000 nM,172 to 174 °C,> 50%
"O=C(Nc1cccc(Cl)c1)c1ccccc1CN1C(=O)C2(COc3cc4c(cc32)CCO4)c2ccccc21 (stereo not drawn) [Example 12.13, N-(3-chlorophenyl)-2-[(2′-oxo-5,6-dihydrospiro[benzo[1,2-b:5,4-b′]difuran-3,3′-indol]-1′(2′H)-yl)methyl]benzamide]",1000 to 10000 nM,> 230 °C,> 50%
"CCCCCCCNC(=O)c1ccccc1CN1C(=O)C2(COc3cc4c(cc32)CCO4)c2ccccc21 (stereo not drawn) [Example 12.15, N-heptyl-2-[(2′-oxo-5,6-dihydrospiro[benzo[1,2-b:5,4-b′]difuran-3,3′-indol]-1′(2′H)-yl)methyl]benzamide]",1000 to 10000 nM,196 to 198 °C,> 50%
"O=C(c1ccccc1CN1C(=O)C2(COc3cc4c(cc32)CCO4)c2ccccc21)N1CCCCC1 (stereo not drawn) [Example 12.17, 1′-[2-(piperidin-1-ylcarbonyl)benzyl]-5,6-dihydrospiro[benzo[1,2-b:5,4-b′]difuran-3,3′-indol]-2′(1′H)-one]",1000 to 10000 nM,168 to 170 °C,> 50%
"CCCCNC(=O)c1ccccc1CN1C(=O)C2(COc3cc4c(cc32)CCO4)c2ccccc21 (stereo not drawn) [Example 12.18, N-butyl-2-[(2′-oxo-5,6-dihydrospiro[benzo[1,2-b:5,4-b′]difuran-3,3′-indol]-1′(2′H)-yl)methyl]benzamide]",1000 to 10000 nM,176 to 178 °C,> 50%
"Cc1cccc(NC(=O)c2ccccc2CN2C(=O)C3(COc4cc5c(cc43)CCO5)c3ccccc32)c1 (stereo not drawn) [Example 12.19, N-(3-methylphenyl)-2-[(2′-oxo-5,6-dihydrospiro[benzo[1,2-b:5,4-b′]difuran-3,3′-indol]-1′(2′H)-yl)methyl]benzamide]",1000 to 10000 nM,229 to 231 °C,> 50%
"Cc1ccc(F)c(NC(=O)c2ccccc2CN2C(=O)C3(COc4cc5c(cc43)CCO5)c3ccccc32)c1 (stereo not drawn) [Example 12.20, N-(2-fluoro-5-methylphenyl)-2-[(2′-oxo-5,6-dihydrospiro[benzo[1,2-b:5,4-b′]difuran-3,3′-indol]-1′(2′H)-yl)methyl]benzamide]",1000 to 10000 nM,214 to 216 °C,> 50%
"Cc1cccc(NC(=O)c2ccccc2CN2C(=O)C3(COc4cc5c(cc43)CCO5)c3ccccc32)c1C (stereo not drawn) [Example 12.21, N-(2,3-dimethylphenyl)-2-[(2′-oxo-5,6-dihydrospiro[benzo[1,2-b:5,4-b′]difuran-3,3′-indol]-1′(2′H)-yl)methyl]benzamide]",1000 to 10000 nM,> 230 °C,> 50%
"CCc1ccccc1NC(=O)c1ccc(CN2C(=O)C3(COc4cc5c(cc43)CCO5)c3ccccc32)cc1 (stereo not drawn) [Example 12.34, N-(2-ethylphenyl)-4-[(2′-oxo-5,6-dihydrospiro[benzo[1,2-b:5,4-b′]difuran-3,3′-indol]-1′(2′H)-yl)methyl]benzamide]",1000 to 10000 nM,203 to 204 °C,> 50%
"Cc1cccc(C)c1NC(=O)c1ccc(CN2C(=O)C3(COc4cc5c(cc43)CCO5)c3ccccc32)cc1 (stereo not drawn) [Example 12.35, N-(2,6-dimethylphenyl)-4-[(2′-oxo-5,6-dihydrospiro[benzo[1,2-b:5,4-b′]difuran-3,3′-indol]-1′(2′H)-yl)methyl]benzamide]",1000 to 10000 nM,> 250 °C,> 50%
"CCNC(=O)c1ccc(CN2C(=O)C3(COc4cc5c(cc43)CCO5)c3ccccc32)cc1 (stereo not drawn) [Example 12.39, N-ethyl-4-[(2′-oxo-5,6-dihydrospiro[benzo[1,2-b:5,4-b′]difuran-3,3′-indol]-1′(2′H)-yl)methyl]benzamide]",100 to 1000 nM,190 to 191 °C,> 50%
"COCCNC(=O)c1ccc(CN2C(=O)C3(COc4cc5c(cc43)CCO5)c3ccccc32)cc1 (stereo not drawn) [Example 12.40, N-(2-methoxyethyl)-4-[(2′-oxo-5,6-dihydrospiro[benzo[1,2-b:5,4-b′]difuran-3,3′-indol]-1′(2′H)-yl)methyl]benzamide]",100 to 1000 nM,182 to 183 °C,< 50%
"CCOCCNC(=O)c1ccc(CN2C(=O)C3(COc4cc5c(cc43)CCO5)c3ccccc32)cc1 (stereo not drawn) [Example 12.41, N-(2-ethoxyethyl)-4-[(2′-oxo-5,6-dihydrospiro[benzo[1,2-b:5,4-b′]difuran-3,3′-indol]-1′(2′H)-yl)methyl]benzamide]",100 to 1000 nM,84 to 85 °C,> 50%

# Second part, the compound after the results:
IC50 [1],melting point,inhibition at 10 µM [2],Structure (SMILES)
100 to 1000 nM,73 to 74 °C,> 50%,"CCCCCCN(C)C(=O)c1cccc(CN2C(=O)C3(COc4cc5c(cc43)CCO5)c3ccccc32)c1 (stereo not drawn) [Example 12.2, N-hexyl-N-methyl-3-[(2′-oxo-5,6-dihydrospiro[benzo[1,2-b:5,4-b′]difuran-3,3′-indol]-1′(2′H)-yl)methyl]benzamide]"
100 to 1000 nM,105 to 106 °C,> 50%,"CCC(CC)CNC(=O)c1cccc(CN2C(=O)C3(COc4cc5c(cc43)CCO5)c3ccccc32)c1 (stereo not drawn) [Example 12.3, N-(2-ethylbutyl)-3-[(2′-oxo-5,6-dihydrospiro[benzo[1,2-b:5,4-b′]difuran-3,3′-indol]-1′(2′H)-yl)methyl]benzamide]"
100 to 1000 nM,234 to 235 °C,> 50%,"Cc1ccc(NC(=O)c2cccc(CN3C(=O)C4(COc5cc6c(cc54)CCO6)c4ccccc43)c2)c(C)c1 (stereo not drawn) [Example 12.4, N-(2,4-dimethylphenyl)-3-[(2′-oxo-5,6-dihydrospiro[benzo[1,2-b:5,4-b′]difuran-3,3′-indol]-1′(2′H)-yl)methyl]benzamide]"
100 to 1000 nM,195 to 197 °C,> 50%,"O=C(Nc1ccccc1F)c1ccccc1CN1C(=O)C2(COc3cc4c(cc32)CCO4)c2ccccc21 (stereo not drawn) [Example 12.12, N-(2-fluorophenyl)-2-[(2′-oxo-5,6-dihydrospiro[benzo[1,2-b:5,4-b′]difuran-3,3′-indol]-1′(2′H)-yl)methyl]benzamide]"
100 to 1000 nM,> 230 °C,> 50%,"Cc1c(F)cccc1NC(=O)c1ccccc1CN1C(=O)C2(COc3cc4c(cc32)CCO4)c2ccccc21 (stereo not drawn) [Example 12.14, N-(3-fluoro-2-methylphenyl)-2-[(2′-oxo-5,6-dihydrospiro[benzo[1,2-b:5,4-b′]difuran-3,3′-indol]-1′(2′H)-yl)methyl]benzamide]"
100 to 1000 nM,148 to 150 °C,> 50%,"O=C(NCc1ccccc1Cl)c1ccccc1CN1C(=O)C2(COc3cc4c(cc32)CCO4)c2ccccc21 (stereo not drawn) [Example 12.16, N-(2-chlorobenzyl)-2-[(2′-oxo-5,6-dihydrospiro[benzo[1,2-b:5,4-b′]difuran-3,3′-indol]-1′(2′H)-yl)methyl]benzamide]"
100 to 1000 nM,> 250 °C,< 50%,"O=C(Nc1cccc(F)c1)c1ccc(CN2C(=O)C3(COc4cc5c(cc43)CCO5)c3ccccc32)cc1 (stereo not drawn) [Example 12.36, N-(3-fluorophenyl)-4-[(2′-oxo-5,6-dihydrospiro[benzo[1,2-b:5,4-b′]difuran-3,3′-indol]-1′(2′H)-yl)methyl]benzamide]"
100 to 1000 nM,249 to 251 °C,< 50%,"Cc1ccc(NC(=O)c2ccc(CN3C(=O)C4(COc5cc6c(cc54)CCO6)c4ccccc43)cc2)c(C)c1 (stereo not drawn) [Example 12.37, N-(2,4-dimethylphenyl)-4-[(2′-oxo-5,6-dihydrospiro[benzo[1,2-b:5,4-b′]difuran-3,3′-indol]-1′(2′H)-yl)methyl]benzamide]"
100 to 1000 nM,167 to 168 °C,> 50%,"O=C(NCc1cccs1)c1ccc(CN2C(=O)C3(COc4cc5c(cc43)CCO5)c3ccccc32)cc1 (stereo not drawn) [Example 12.38, 4-[(2′-oxo-5,6-dihydrospiro[benzo[1,2-b:5,4-b′]difuran-3,3′-indol]-1′(2′H)-yl)methyl]-N-(thiophen-2-ylmethyl)benzamide]"
